Values joined by “and” are separate entries in the source; they are usually repeats but may differ in a detail not shown here. Equal values may be shown once. Read-outs that look alike come from different tables or passages of the source.
Legend:
Format in all cases: cell-based, human
[1] = tested on: non-senescent control A549 cells; assay: Nuclei count senolytic assay, TIS model, non-senescent control cells; details: for viability at 10 µM / viability at 4.68 µM / viability at 2.19 µM / viability at 1 µM / viability at 0.468 µM / viability at 0.219 µM / viability at 0.1 µM / viability at 0.0468 µM / viability at 0.0219 µM / viability at 0.01 µM: A549, Control cells, mean, read-out: Mean % Cell Survival; for % Cell Survival: control cells, single replicate
How it was run: (§1)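 A549 cells were made senescent with 100 μM etoposide for 48 h, then kept three days in normal media; non-senescent A549 served as controls. Compounds were dosed as a 10-point […] series (10 μM to 10 nM final) for 72 h in triplicate. Hoechst-stained nuclei were counted by imaging after fixation.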

[2] = tested on: senescent IMR90 ER:RAS cells (4-OHT-induced); assay: Nuclei count (Hoechst, high content imaging) senolytic assay, oncogene-induced senescence (OIS) model, senescent cells; details: for senolytic activity (in words): experimental screen
How it was run: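 Senescence in IMR90 ER:RAS fibroblasts induced with 100 nM 4-OHT; non-senescent and senescent cells treated 72 h with compounds, 10-point […] range 10 μM–10 nM, triplicate. Cells fixed, permeabilised, Hoechst-stained; total nuclei per well counted by high-content imaging versus untreated controls as cell-death readout.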

[3] = tested on: senescent A549 cells (etoposide-induced); assay: Nuclei count senolytic assay, therapy-induced senescence (TIS) model, senescent cells; details: for viability at 10 µM / viability at 4.68 µM / viability at 2.19 µM / viability at 1 µM / viability at 0.468 µM / viability at 0.219 µM / viability at 0.1 µM / viability at 0.0468 µM / viability at 0.0219 µM / viability at 0.01 µM: A549, Senescent cells, mean, read-out: Mean % Cell Survival; for % Cell Survival: senescence cells, single replicate
How it was run: as §1

[4] = Homo sapiens, log (dose) [M] -5
[5] = Homo sapiens, log (dose) [M] -5.33
[6] = Homo sapiens, log (dose) [M] -5.66
[7] = Homo sapiens, log (dose) [M] -6
[8] = Homo sapiens, log (dose) [M] -6.33
[9] = Homo sapiens, log (dose) [M] -6.66
[10] = Homo sapiens, log (dose) [M] -7
[11] = Homo sapiens, log (dose) [M] -7.33
[12] = Homo sapiens, log (dose) [M] -7.66
[13] = Homo sapiens, log (dose) [M] -8
[14] = Homo sapiens, IMR-90, 72 h, Senescent, log (dose) [M] -5, 72 h, mean n=3 (Fig 3C), read-out: Mean % Cell Survival
[15] = Homo sapiens, IMR-90, 72 h, Senescent, log (dose) [M] -5.33, 72 h, mean n=3 (Fig 3C), read-out: Mean % Cell Survival
[16] = Homo sapiens, IMR-90, 72 h, Senescent, log (dose) [M] -5.66, 72 h, mean n=3 (Fig 3C), read-out: Mean % Cell Survival
[17] = Homo sapiens, IMR-90, 72 h, Senescent, log (dose) [M] -6, 72 h, mean n=3 (Fig 3C), read-out: Mean % Cell Survival
[18] = Homo sapiens, IMR-90, 72 h, Senescent, log (dose) [M] -6.33, 72 h, mean n=3 (Fig 3C), read-out: Mean % Cell Survival
[19] = Homo sapiens, IMR-90, 72 h, Senescent, log (dose) [M] -6.66, 72 h, mean n=3 (Fig 3C), read-out: Mean % Cell Survival
[20] = Homo sapiens, IMR-90, 72 h, Senescent, log (dose) [M] -7, 72 h, mean n=3 (Fig 3C), read-out: Mean % Cell Survival
[21] = Homo sapiens, IMR-90, 72 h, Senescent, log (dose) [M] -7.33, 72 h, mean n=3 (Fig 3C), read-out: Mean % Cell Survival
[22] = Homo sapiens, IMR-90, 72 h, Senescent, log (dose) [M] -7.66, 72 h, mean n=3 (Fig 3C), read-out: Mean % Cell Survival
[23] = Homo sapiens, IMR-90, 72 h, Senescent, log (dose) [M] -8, 72 h, mean n=3 (Fig 3C), read-out: Mean % Cell Survival

O=c1c(O)c(-c2ccc(O)cc2O)oc2cc(O)cc(O)c12 [Morin, morin]
viability at 10 µM [1, 4]: 33.9% | viability at 4.68 µM [1, 5]: 98.9% | viability at 2.19 µM [1, 6]: 63.6% | viability at 1 µM [1, 7]: 115% | viability at 0.468 µM [1, 8]: 104% | viability at 0.219 µM [1, 9]: 99.4% | viability at 0.1 µM [1, 10]: 94.4% | viability at 0.0468 µM [1, 11]: 111% | viability at 0.0219 µM [1, 12]: 67.6% | viability at 0.01 µM [1, 13]: 67.4% | viability at 10 µM [2, 14]: 75% | viability at 4.677 µM [2, 15]: 90.7% | viability at 2.188 µM [2, 16]: 96.2% | viability at 1 µM [2, 17]: 91.1% | viability at 0.4677 µM [2, 18]: 91.7% | viability at 0.2188 µM [2, 19]: 92.4% | viability at 0.1 µM [2, 20]: 96.6% | viability at 0.04677 µM [2, 21]: 95.3% | viability at 0.02188 µM [2, 22]: 92.3% | viability at 0.01 µM [2, 23]: 94.2% | viability at 10 µM ([2]; Homo sapiens, IMR-90, Senescent cells, log (dose) [M] -5, individual replicates, SUP FIG 4C, read-out: % Cell Survival): 75.9% | viability at 0.04677 µM ([2]; Homo sapiens, IMR-90, Senescent cells, log (dose) [M] -7.33, individual replicates, SUP FIG 4C, read-out: % Cell Survival): 87% | viability at 0.02188 µM ([2]; Homo sapiens, IMR-90, Senescent cells, log (dose) [M] -7.66, individual replicates, SUP FIG 4C, read-out: % Cell Survival): 91.1% | viability at 2.188 µM ([2]; Homo sapiens, IMR-90, Senescent, log (dose) [M] -5.66, read-out: % Cell Survival): 55.7% | viability at 1 µM ([2]; Homo sapiens, IMR-90, Senescent, log (dose) [M] -6, read-out: % Cell Survival): 62.4% | viability at 0.2188 µM ([2]; Homo sapiens, IMR-90, Senescent, log (dose) [M] -6.66, read-out: % Cell Survival): 63.2% | viability at 0.02188 µM ([2]; Homo sapiens, IMR-90, Senescent, log (dose) [M] -7.66, read-out: % Cell Survival): 95.7% | viability at 0.01 µM ([2]; Homo sapiens, IMR-90, Senescent, log (dose) [M] -8, read-out: % Cell Survival): 93.7% | senolytic activity (in words) ([2]; OIS IMR90 ER:RAS): inactive | viability at 10 µM [3, 4]: 87.9% | viability at 4.68 µM [3, 5]: 93.5% | viability at 2.19 µM [3, 6]: 59.5% | viability at 1 µM [3, 7]: 67.1% | viability at 0.468 µM [3, 8]: 88.2% | viability at 0.219 µM [3, 9]: 69.3% | viability at 0.1 µM [3, 10]: 84.2% | viability at 0.0468 µM [3, 11]: 54.5% | viability at 0.0219 µM [3, 12]: 87.7% | viability at 0.01 µM [3, 13]: 95.1%

CO[C@H]1C[C@H](O[C@H]2CC[C@@]3(C)[C@H](CC[C@@H]4[C@@H]3CC[C@]3(C)[C@@H](C5=CC(=O)OC5)[C@@H](OC(C)=O)C[C@]43O)C2)O[C@@H](C)[C@@H]1O [Oleandrin, oleandrin]
viability at 10 µM [1, 4]: 1.02% | viability at 4.68 µM [1, 5]: 1.71% | viability at 2.19 µM [1, 6]: 1.34% | viability at 1 µM [1, 7]: 1.19% | viability at 0.468 µM [1, 8]: 1.55% | viability at 0.219 µM [1, 9]: 2.98% | viability at 0.1 µM [1, 10]: 6.37% | viability at 0.0468 µM [1, 11]: 4.07% | viability at 0.0219 µM [1, 12]: 25.8% | viability at 0.01 µM [1, 13]: 34.2% | IC50 ([1]; Homo sapiens, TIS model, non-senescent A549, nuclei count, 72 h): 19.5 nM | % Cell Survival ([1]; log (dose) [M] -5): 0.2886% and 2.786% and 0% | % Cell Survival ([1]; log (dose) [M] -5.33): 1.948% and 1.5% and 1.695% | % Cell Survival ([1]; log (dose) [M] -5.66): 1.659% and 1.071% and 1.304% | % Cell Survival ([1]; log (dose) [M] -6): 0% and 2.071% and 1.499% | % Cell Survival ([1]; log (dose) [M] -6.33): 1.371% and 2.429% and 0.8475% | % Cell Survival ([1]; log (dose) [M] -6.66): 4.113% and 2.929% and 1.89% | % Cell Survival ([1]; log (dose) [M] -7): 5.267% and 9.857% and 3.977% | % Cell Survival ([1]; log (dose) [M] -7.33): 0% and 0.07143% and 12.1252% | % Cell Survival ([1]; log (dose) [M] -7.66): 49.3506% and 28.0313% | % Cell Survival ([1]; log (dose) [M] -8): 102.742% | viability at 10 µM [2, 14]: 2.6% | viability at 4.677 µM [2, 15]: 4.06% | viability at 2.188 µM [2, 16]: 5.74% | viability at 1 µM [2, 17]: 4.49% | viability at 0.4677 µM [2, 18]: 5.02% | viability at 0.2188 µM [2, 19]: 3.64% | viability at 0.1 µM [2, 20]: 3.83% | viability at 0.04677 µM [2, 21]: 6.59% | viability at 0.02188 µM [2, 22]: 13.4% | viability at 0.01 µM [2, 23]: 87.9% | viability at 10 µM ([2]; Homo sapiens, IMR-90, senescence, log (dose) [M] -5, individual replicates (Fig 3D), read-out: % Cell Survival): 3.12% | viability at 4.677 µM ([2]; Homo sapiens, IMR-90, senescence, log (dose) [M] -5.33, individual replicates (Fig 3D), read-out: % Cell Survival): 4.77% | viability at 2.188 µM ([2]; Homo sapiens, IMR-90, senescence, log (dose) [M] -5.66, individual replicates (Fig 3D), read-out: % Cell Survival): 7.52% | viability at 1 µM ([2]; Homo sapiens, IMR-90, senescence, log (dose) [M] -6, individual replicates (Fig 3D), read-out: % Cell Survival): 5.5% | viability at 0.4677 µM ([2]; Homo sapiens, IMR-90, senescence, log (dose) [M] -6.33, individual replicates (Fig 3D), read-out: % Cell Survival): 4.4% | viability at 0.2188 µM ([2]; Homo sapiens, IMR-90, senescence, log (dose) [M] -6.66, individual replicates (Fig 3D), read-out: % Cell Survival): 4.04% | viability at 0.1 µM ([2]; Homo sapiens, IMR-90, senescence, log (dose) [M] -7, individual replicates (Fig 3D), read-out: % Cell Survival): 4.95% | viability at 0.02188 µM ([2]; Homo sapiens, IMR-90, senescence, log (dose) [M] -7.66, individual replicates (Fig 3D), read-out: % Cell Survival): 12.3% | IC50 ([2]; Homo sapiens, IMR-90, OIS model, 4-OHT-induced IMR90 ER:RAS, nuclei count, 72 h): 14 nM | dose showing the clearest / optimal senolytic effect ([2]; OIS IMR90 ER:RAS, Hoechst nuclei count, marginal effect on normal cells): 21.5 nM | senolytic activity (in words) ([2]; OIS IMR90 ER:RAS): clear senolytic action | senolytic index (SI) ([2]; ratio between the IC50 of control cells and the IC50 of senescent cells, OIS IMR90 ER:RAS): 5.8 | viability at 10 µM [3, 4]: 0.749% | viability at 4.68 µM [3, 5]: 1.57% | viability at 2.19 µM [3, 6]: 1.08% | viability at 1 µM [3, 7]: 1.7% | viability at 0.468 µM [3, 8]: 1.38% | viability at 0.219 µM [3, 9]: 2.19% | viability at 0.1 µM [3, 10]: 3.51% | viability at 0.0468 µM [3, 11]: 9.16% | viability at 0.0219 µM [3, 12]: 3.39% | viability at 0.01 µM [3, 13]: 26.8% | IC50 ([3]; Homo sapiens, TIS model, etoposide-induced senescent A549, nuclei count, 72 h): 5.4 nM | concentration at which a senolytic effect was reached ([3]; TIS A549, Hoechst labelling, marginal effect on normal cells): 10 nM | senolytic action (in words) ([3]; experimental screen, TIS senescent A549): strong senolytic action | % Cell Survival ([3]; log (dose) [M] -5): 1.111% and 0.1906% and 0.9453% | % Cell Survival ([3]; log (dose) [M] -5.33): 1.898% and 1.858% and 0.9453% | % Cell Survival ([3]; log (dose) [M] -5.66): 1.065% and 1.477% and 0.6965% | % Cell Survival ([3]; log (dose) [M] -6): 2.222% and 1.477% and 1.393% | % Cell Survival ([3]; log (dose) [M] -6.33): 1.806% and 1.286% and 1.045% | % Cell Survival ([3]; log (dose) [M] -6.66): 2.083% and 3.383% and 1.095% | % Cell Survival ([3]; log (dose) [M] -7): 3.194% and 5.908% and 1.443% | % Cell Survival ([3]; log (dose) [M] -7.33): 3.7037% and 20.1525% and 3.632% | % Cell Survival ([3]; log (dose) [M] -7.66): 6.2037% and 0.09528% and 3.8806% | % Cell Survival ([3]; log (dose) [M] -8): 34.3519% and 21.3435% and 24.6766%
